Results from patent US20240173329A1, “BELVARAFENIB FOR USE IN TREATMENT OF BRAIN CANCERS” (Genentech, Inc., priority 2021, published 2024).

Tests used:
EPHA8 = target: T1, EPHA8 (Homo sapiens, UniProt P29322); experiment: panel of 189 kinase assays; type: biochemical
T1 sequence (P29322 28-1005): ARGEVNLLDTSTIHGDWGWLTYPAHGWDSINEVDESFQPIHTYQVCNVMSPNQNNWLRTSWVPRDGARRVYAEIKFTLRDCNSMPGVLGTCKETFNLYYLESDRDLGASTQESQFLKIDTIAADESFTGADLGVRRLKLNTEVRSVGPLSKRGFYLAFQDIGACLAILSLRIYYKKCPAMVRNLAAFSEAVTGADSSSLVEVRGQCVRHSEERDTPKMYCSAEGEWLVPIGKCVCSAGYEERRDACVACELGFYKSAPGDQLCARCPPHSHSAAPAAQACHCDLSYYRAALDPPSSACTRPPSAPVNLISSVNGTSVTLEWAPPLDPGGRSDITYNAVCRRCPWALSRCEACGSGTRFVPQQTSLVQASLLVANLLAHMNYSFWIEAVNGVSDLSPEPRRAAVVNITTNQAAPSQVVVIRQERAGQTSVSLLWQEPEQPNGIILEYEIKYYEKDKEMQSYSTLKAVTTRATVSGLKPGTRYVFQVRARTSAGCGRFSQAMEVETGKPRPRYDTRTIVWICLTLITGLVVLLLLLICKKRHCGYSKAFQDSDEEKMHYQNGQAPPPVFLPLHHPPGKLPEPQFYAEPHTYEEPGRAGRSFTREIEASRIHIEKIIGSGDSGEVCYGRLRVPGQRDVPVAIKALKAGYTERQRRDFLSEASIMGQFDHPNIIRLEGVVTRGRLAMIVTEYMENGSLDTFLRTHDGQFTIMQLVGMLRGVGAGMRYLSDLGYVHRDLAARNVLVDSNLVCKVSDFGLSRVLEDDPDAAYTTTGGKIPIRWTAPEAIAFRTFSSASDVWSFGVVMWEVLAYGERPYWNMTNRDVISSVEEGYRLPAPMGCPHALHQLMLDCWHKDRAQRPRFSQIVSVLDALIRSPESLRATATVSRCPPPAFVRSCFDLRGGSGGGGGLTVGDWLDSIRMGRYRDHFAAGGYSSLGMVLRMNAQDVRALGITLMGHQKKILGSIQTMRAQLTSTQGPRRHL

[1] = Phase I relative bioavailability and food effect study in healthy subjects; type: in vivo; settings: 200 mg single dose
Description: In another Phase I, single dose, randomized, crossover relative bioavailability and food effect study in healthy subjects, the influence of a formulation change from the Phase I to Phase II tablet on belvarafenib exposure was evaluated. A total of 18 healthy subjects were enrolled in the study and received the following randomized treatments: one 150-mg and one 50-mg Phase I tablet in a fed state, two 100-mg Phase II tablets in a fed state, or two 100-mg Phase II tablets in a fasted state, with an 18-day washout between treatments. There was a positive effect of food on belvarafenib exposure in the fed state compared to the fasted state.

EPHA7 = EPHA7 (Homo sapiens, UniProt Q15375); experiment: panel of 189 kinase assays; type: biochemical
[2] = target: colony stimulating factor 1 receptor (CSF1R) (Homo sapiens, UniProt P07333); experiment: panel of 189 kinase assays; type: biochemical
Sequence of colony stimulating factor 1 receptor (CSF1R) (P07333 20-972, species assumed): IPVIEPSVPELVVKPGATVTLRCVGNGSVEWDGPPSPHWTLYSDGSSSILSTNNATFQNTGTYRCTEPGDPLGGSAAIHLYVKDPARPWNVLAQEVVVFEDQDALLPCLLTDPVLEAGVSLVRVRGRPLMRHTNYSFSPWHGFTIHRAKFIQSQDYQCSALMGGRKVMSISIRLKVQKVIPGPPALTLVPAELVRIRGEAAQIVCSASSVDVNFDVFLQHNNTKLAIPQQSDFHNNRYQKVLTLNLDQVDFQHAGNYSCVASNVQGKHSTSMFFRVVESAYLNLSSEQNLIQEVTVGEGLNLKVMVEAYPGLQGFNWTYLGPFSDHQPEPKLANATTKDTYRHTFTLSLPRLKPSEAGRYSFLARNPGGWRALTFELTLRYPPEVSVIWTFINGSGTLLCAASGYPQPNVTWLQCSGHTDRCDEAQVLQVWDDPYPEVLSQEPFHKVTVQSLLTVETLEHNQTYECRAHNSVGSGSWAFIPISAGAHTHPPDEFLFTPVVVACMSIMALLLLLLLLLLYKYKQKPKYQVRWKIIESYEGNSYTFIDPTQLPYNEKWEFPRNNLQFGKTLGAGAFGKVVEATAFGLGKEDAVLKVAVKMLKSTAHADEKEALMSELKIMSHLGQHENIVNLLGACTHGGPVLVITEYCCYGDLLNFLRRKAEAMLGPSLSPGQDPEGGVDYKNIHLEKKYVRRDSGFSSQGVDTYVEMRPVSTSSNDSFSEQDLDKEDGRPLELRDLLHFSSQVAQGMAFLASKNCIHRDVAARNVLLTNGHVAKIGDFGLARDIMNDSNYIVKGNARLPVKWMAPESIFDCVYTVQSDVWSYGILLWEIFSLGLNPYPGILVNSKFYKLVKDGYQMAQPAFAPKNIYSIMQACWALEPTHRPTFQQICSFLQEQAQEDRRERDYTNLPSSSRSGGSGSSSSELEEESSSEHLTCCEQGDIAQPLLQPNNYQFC

Sequence of EPHA7 (Q15375 28-998, species assumed): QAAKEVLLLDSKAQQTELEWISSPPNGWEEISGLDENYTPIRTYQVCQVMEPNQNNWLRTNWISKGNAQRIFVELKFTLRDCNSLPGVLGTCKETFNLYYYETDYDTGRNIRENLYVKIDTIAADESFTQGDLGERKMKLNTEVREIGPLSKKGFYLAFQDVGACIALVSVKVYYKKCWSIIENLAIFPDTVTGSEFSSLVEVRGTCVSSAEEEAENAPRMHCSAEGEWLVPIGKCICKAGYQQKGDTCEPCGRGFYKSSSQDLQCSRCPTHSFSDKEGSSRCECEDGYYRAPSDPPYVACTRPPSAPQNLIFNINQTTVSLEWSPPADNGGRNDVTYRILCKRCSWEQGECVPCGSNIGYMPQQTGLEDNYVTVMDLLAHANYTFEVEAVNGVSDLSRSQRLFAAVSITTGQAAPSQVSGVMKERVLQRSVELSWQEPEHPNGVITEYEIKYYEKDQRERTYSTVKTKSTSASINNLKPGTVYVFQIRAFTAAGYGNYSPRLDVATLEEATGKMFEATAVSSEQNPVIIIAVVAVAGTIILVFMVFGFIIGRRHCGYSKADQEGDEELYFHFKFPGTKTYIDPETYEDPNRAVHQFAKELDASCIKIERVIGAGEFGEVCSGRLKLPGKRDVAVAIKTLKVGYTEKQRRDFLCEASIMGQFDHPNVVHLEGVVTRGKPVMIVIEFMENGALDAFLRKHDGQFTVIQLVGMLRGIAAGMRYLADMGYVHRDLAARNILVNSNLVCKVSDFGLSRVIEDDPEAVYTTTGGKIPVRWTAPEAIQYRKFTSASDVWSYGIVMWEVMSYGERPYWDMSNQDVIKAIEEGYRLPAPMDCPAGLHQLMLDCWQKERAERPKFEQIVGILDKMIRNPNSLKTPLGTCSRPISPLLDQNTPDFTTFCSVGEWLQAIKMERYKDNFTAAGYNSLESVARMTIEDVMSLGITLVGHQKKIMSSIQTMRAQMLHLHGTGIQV

## Cc1ccc2c(Nc3cccc(Cl)c3F)nccc2c1NC(=O)c1csc2c(N)ncnc12 [Belvarafenib, 4-amino-N-(1-((3-chloro-2-fluorophenyl)amino)-6-methylisoquinolin-5-yl)thieno[3,2-d]pyrimidine-7-carboxamide]
EPHA8
  inhibition at 1 µM: > 90%
[1]
  AUC0-inf increase, fed state compared to fasted state: ~2.8 fold
  Cmax increase, fed state compared to fasted state: approximately 2.2 fold
  adverse events: No serious adverse events, adverse events of special interest, or deaths were reported
EPHA7
  inhibition at 1 µM: > 90%
[2]
  inhibition at 1 µM: > 90%
